Laboratory results from ChEMBL document CHEMBL3885881, “DrugMatrix”.

Species on record: Rattus norvegicus
Assay: DrugMatrix - Regimen: Daily Repeat
Type: toxicity, organism-based, Sprague-Dawley
Design: regimen Daily Repeat, gender Male, age 6-8 weeks
Settings: in vivo, po, route oral GAVAGE, vehicle 100 % WATER; for ABSOLUTE BASOPHIL / ABSOLUTE EOSINOPHIL / ABSOLUTE LYMPHOCYTE / ABSOLUTE MONOCYTE / ABSOLUTE SEGMENTED NEUTROPHIL / BASOPHIL / EOSINOPHIL / ERYTHROCYTE COUNT / HEMATOCRIT / HEMOGLOBIN / LEUKOCYTE COUNT / LYMPHOCYTE / MEAN CORPUSCULAR HEMOGLOBIN / MEAN CORPUSCULAR HEMOGLOBIN CONCENTRATION / MEAN CORPUSCULAR VOLUME / MONOCYTE / NEUTROPHIL / NUCLEATED RED BLOOD CELLS / PLATELET COUNT: tissue Blood; for ALANINE AMINOTRANSFERASE / ALBUMIN / ALKALINE PHOSPHATASE / ASPARTATE AMINOTRANSFERASE / BLOOD UREA NITROGEN / CARBON DIOXIDE / CHLORIDE / CHOLESTEROL / CREATINE PHOSPHOKINASE / CREATININE / GLUCOSE / LACTATE DEHYDROGENASE / LIPASE / PHOSPHORUS / POTASSIUM / SODIUM / TOTAL BILIRUBIN / TOTAL PROTEIN / URIC ACID: tissue Plasma
[1] = 60 mg/kg, 120 h, dose level Low, time 5 day
[2] = 1300 mg/kg, 72 h, dose level High, time 3 day
[3] = 1300 mg/kg, 120 h, dose level High, time 5 day

CC(C)C[C@H](NC(=O)[C@@H](O)[C@H](N)Cc1ccccc1)C(=O)O [UBENIMEX]
ABSOLUTE BASOPHIL [1]: 0 CELLS/uL
ABSOLUTE EOSINOPHIL [1]: 0 CELLS/uL
ABSOLUTE LYMPHOCYTE [1]: 15131 CELLS/uL
ABSOLUTE MONOCYTE [1]: 122 CELLS/uL
ABSOLUTE SEGMENTED NEUTROPHIL [1]: 847 CELLS/uL
BASOPHIL [1]: 0%
EOSINOPHIL [1]: 0%
ERYTHROCYTE COUNT [1]: 5.87 x10E6/uL
HEMATOCRIT [1]: 36.17%
HEMOGLOBIN [1]: 14.03 G/DL
LEUKOCYTE COUNT [1]: 16.1 x10E3/uL
LYMPHOCYTE [1]: 94.33%
MEAN CORPUSCULAR HEMOGLOBIN [1]: 23.9 pg
MEAN CORPUSCULAR HEMOGLOBIN CONCENTRATION [1]: 38.77 G/DL
MEAN CORPUSCULAR VOLUME [1]: 61.53 fL
MONOCYTE [1]: 0.67%
NEUTROPHIL [1]: 5%
NUCLEATED RED BLOOD CELLS [1]: 0 /100WBC
PLATELET COUNT [1]: 1187.67 x10E3/uL
ALANINE AMINOTRANSFERASE [1]: 53.33 u/L
ALBUMIN [1]: 4.3 G/DL
ALKALINE PHOSPHATASE [1]: 289.33 u/L
ASPARTATE AMINOTRANSFERASE [1]: 93.33 u/L
BLOOD UREA NITROGEN [1]: 16.33 mg/dL
CARBON DIOXIDE [1]: 23.67 mmol/L
CHLORIDE [1]: 105 MEQ/L
CHOLESTEROL [1]: 62.33 mg/dL
CREATINE PHOSPHOKINASE [1]: 463.33 u/L
CREATININE [1]: 0.26 mg/dL
GLUCOSE [1]: 146.33 mg/dL
LACTATE DEHYDROGENASE [1]: 498.67 u/L
LIPASE [1]: 9 u/L
PHOSPHORUS [1]: 11.2 mg/dL
POTASSIUM [1]: 5.71 MEQ/L
SODIUM [1]: 144.27 MEQ/L
TOTAL BILIRUBIN [1]: 0.13 mg/dL
TOTAL PROTEIN [1]: 6.1 G/DL
URIC ACID [1]: 1.37 mg/dL
ABSOLUTE BASOPHIL [2]: 0 CELLS/uL
ABSOLUTE EOSINOPHIL [2]: 88 CELLS/uL
ABSOLUTE LYMPHOCYTE [2]: 12244.33 CELLS/uL
ABSOLUTE MONOCYTE [2]: 144 CELLS/uL
ABSOLUTE SEGMENTED NEUTROPHIL [2]: 1690.33 CELLS/uL
BASOPHIL [2]: 0%
EOSINOPHIL [2]: 0.67%
ERYTHROCYTE COUNT [2]: 5.72 x10E6/uL
HEMATOCRIT [2]: 34.83%
HEMOGLOBIN [2]: 14.07 G/DL
LEUKOCYTE COUNT [2]: 14.17 x10E3/uL
LYMPHOCYTE [2]: 86.33%
MEAN CORPUSCULAR HEMOGLOBIN [2]: 24.63 pg
MEAN CORPUSCULAR HEMOGLOBIN CONCENTRATION [2]: 40.37 G/DL
MEAN CORPUSCULAR VOLUME [2]: 60.93 fL
MONOCYTE [2]: 1%
NEUTROPHIL [2]: 12%
NUCLEATED RED BLOOD CELLS [2]: 0 /100WBC
PLATELET COUNT [2]: 1238.33 x10E3/uL
ALANINE AMINOTRANSFERASE [2]: 54.33 u/L
ALBUMIN [2]: 4 G/DL
ALKALINE PHOSPHATASE [2]: 304.33 u/L
ASPARTATE AMINOTRANSFERASE [2]: 87 u/L
BLOOD UREA NITROGEN [2]: 14 mg/dL
CARBON DIOXIDE [2]: 23.67 mmol/L
CHLORIDE [2]: 102.33 MEQ/L
CHOLESTEROL [2]: 63.33 mg/dL
CREATINE PHOSPHOKINASE [2]: 350.33 u/L
CREATININE [2]: 0.18 mg/dL
GLUCOSE [2]: 197.67 mg/dL
LACTATE DEHYDROGENASE [2]: 237.33 u/L
LIPASE [2]: 9 u/L
PHOSPHORUS [2]: 10.53 mg/dL
POTASSIUM [2]: 5.18 MEQ/L
SODIUM [2]: 142.5 MEQ/L
TOTAL BILIRUBIN [2]: 0.17 mg/dL
TOTAL PROTEIN [2]: 5.7 G/DL
URIC ACID [2]: 1.27 mg/dL
ABSOLUTE BASOPHIL [3]: 0 CELLS/uL
ABSOLUTE EOSINOPHIL [3]: 28.67 CELLS/uL
ABSOLUTE LYMPHOCYTE [3]: 12669 CELLS/uL
ABSOLUTE MONOCYTE [3]: 277.67 CELLS/uL
ABSOLUTE SEGMENTED NEUTROPHIL [3]: 1191.33 CELLS/uL
BASOPHIL [3]: 0%
EOSINOPHIL [3]: 0.33%
ERYTHROCYTE COUNT [3]: 5.82 x10E6/uL
HEMATOCRIT [3]: 35.73%
HEMOGLOBIN [3]: 14.33 G/DL
LEUKOCYTE COUNT [3]: 14.17 x10E3/uL
LYMPHOCYTE [3]: 89.67%
MEAN CORPUSCULAR HEMOGLOBIN [3]: 24.6 pg
MEAN CORPUSCULAR HEMOGLOBIN CONCENTRATION [3]: 40.17 G/DL
MEAN CORPUSCULAR VOLUME [3]: 61.37 fL
MONOCYTE [3]: 2%
NEUTROPHIL [3]: 8%
NUCLEATED RED BLOOD CELLS [3]: 0 /100WBC
PLATELET COUNT [3]: 1144.33 x10E3/uL
ALANINE AMINOTRANSFERASE [3]: 48.33 u/L
ALBUMIN [3]: 4.23 G/DL
ALKALINE PHOSPHATASE [3]: 308.67 u/L
ASPARTATE AMINOTRANSFERASE [3]: 76.67 u/L
BLOOD UREA NITROGEN [3]: 16.67 mg/dL
CARBON DIOXIDE [3]: 25.67 mmol/L
CHLORIDE [3]: 108.67 MEQ/L
CHOLESTEROL [3]: 58.33 mg/dL
CREATINE PHOSPHOKINASE [3]: 244.67 u/L
CREATININE [3]: 0.23 mg/dL
GLUCOSE [3]: 155.67 mg/dL
LACTATE DEHYDROGENASE [3]: 228.67 u/L
LIPASE [3]: 10 u/L
PHOSPHORUS [3]: 9.27 mg/dL
POTASSIUM [3]: 6.1 MEQ/L
SODIUM [3]: 150.27 MEQ/L
TOTAL BILIRUBIN [3]: 0.2 mg/dL
TOTAL PROTEIN [3]: 6.03 G/DL
URIC ACID [3]: 1.53 mg/dL
